PubChem BioAssay (NCI)
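A five-concentration, 48-hour dose response in 96-well plates underlies each endpoint, interpolated linearly between surrounding concentrations. TGI marks complete inhibition of growth.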

Tests used:
Experiment in all cases: DTP human tumour cell line panel, 48 h
[1] = test system: 786-0 renal
[2] = test system: A498 renal
[3] = test system: A549 NSCLC
[4] = test system: ACHN renal
[5] = test system: BT-549 breast
[6] = test system: CAKI-1 renal
[7] = test system: CCRF-CEM leukemia
[8] = test system: COLO 205 colon
[9] = test system: DU-145 prostate
[10] = test system: HCC-2998 colon
[11] = test system: HCT-116 colon
[12] = test system: HCT-15 colon
[13] = test system: HOP-62 NSCLC
[14] = test system: HOP-92 NSCLC
[15] = test system: HS 578T breast
[16] = test system: HT29 colon
[17] = test system: IGROV1 ovarian
[18] = test system: K-562 leukemia
[19] = test system: KM12 colon
[20] = test system: M14 melanoma
[21] = test system: MALME-3M melanoma
[22] = test system: MCF7 breast
[23] = test system: MDA-MB-231 breast
[24] = test system: MDA-MB-435
[25] = test system: MDA-N
[26] = test system: MOLT-4 leukemia
[27] = test system: NCI-H226 lung
[28] = test system: NCI-H23 lung
[29] = test system: NCI-H460 lung
[30] = test system: NCI-H522 lung
[31] = test system: NCI/ADR-RES ovarian
[32] = test system: OVCAR-3 ovarian
[33] = test system: OVCAR-4 ovarian
[34] = test system: OVCAR-5 ovarian
[35] = test system: OVCAR-8 ovarian
[36] = test system: PC-3 prostate
[37] = test system: RPMI-8226 leukemia
[38] = test system: RXF 393 renal
[39] = test system: SF-268 CNS
[40] = test system: SF-295 CNS
[41] = test system: SF-539 CNS
[42] = test system: SK-MEL-2 melanoma
[43] = test system: SK-MEL-28 melanoma
[44] = test system: SK-MEL-5 melanoma
[45] = test system: SK-OV-3 ovarian
[46] = test system: SN12C renal
[47] = test system: SNB-75 CNS
[48] = test system: SR leukemia
[49] = test system: SW-620 colon
[50] = test system: T-47D breast
[51] = test system: TK-10 renal
[52] = test system: U251 CNS
[53] = test system: UACC-257 melanoma
[54] = test system: UACC-62 melanoma
[55] = test system: UO-31 renal
[56] = test system: EKVX NSCLC
[57] = test system: HL-60(TB) leukemia
[58] = test system: LOX IMVI melanoma
[59] = test system: SNB-19 CNS

Structure (SMILES): CC(=O)N1N=C(c2ccc3ccccc3c2O)CC1C(=O)c1ccco1 (stereo not given)
- TGI [1]: > 100 µM
- TGI [2]: > 100 µM
- TGI [3]: > 100 µM
- TGI [4]: > 100 µM
- TGI [5]: > 100 µM
- TGI [6]: > 100 µM
- TGI [7]: 24.9 µM
- TGI [8]: 67.6 µM
- TGI [9]: > 100 µM
- TGI [10]: 55.5 µM
- TGI [11]: > 100 µM
- TGI [12]: > 100 µM
- TGI [13]: > 100 µM
- TGI [14]: > 100 µM
- TGI [15]: > 100 µM
- TGI [16]: > 100 µM
- TGI [17]: > 100 µM
- TGI [18]: 41 µM
- TGI [19]: 44.8 µM
- TGI [20]: 57.7 µM
- TGI [21]: > 100 µM
- TGI [22]: > 100 µM
- TGI [23]: > 100 µM
- TGI [24]: > 100 µM
- TGI [25]: > 100 µM
- TGI [26]: 24.4 µM
- TGI [27]: > 100 µM
- TGI [28]: > 100 µM
- TGI [29]: > 100 µM
- TGI [30]: 76.6 µM
- TGI [31]: 57.8 µM
- TGI [32]: > 100 µM
- TGI [33]: > 100 µM
- TGI [34]: > 100 µM
- TGI [35]: > 100 µM
- TGI [36]: > 100 µM
- TGI [37]: 85 µM
- TGI [38]: > 100 µM
- TGI [39]: > 100 µM
- TGI [40]: > 100 µM
- TGI [41]: 83.8 µM
- TGI [42]: 52.8 µM
- TGI [43]: > 100 µM
- TGI [44]: > 100 µM
- TGI [45]: > 100 µM
- TGI [46]: > 100 µM
- TGI [47]: > 100 µM
- TGI [48]: 18.6 µM
- TGI [49]: > 100 µM
- TGI [50]: > 100 µM
- TGI [51]: > 100 µM
- TGI [52]: > 100 µM
- TGI [53]: > 100 µM
- TGI [54]: 62.6 µM
- TGI [55]: > 100 µM

Structure (SMILES): CC(C)CNC(=O)O
- TGI [1]: > 100 µM
- TGI [2]: > 100 µM
- TGI [3]: > 100 µM
- TGI [4]: > 100 µM
- TGI [5]: > 100 µM
- TGI [6]: > 100 µM
- TGI [7]: > 100 µM
- TGI [8]: > 100 µM
- TGI [9]: > 100 µM
- TGI [56]: > 100 µM
- TGI [11]: > 100 µM
- TGI [12]: > 100 µM
- TGI [57]: > 100 µM
- TGI [13]: > 100 µM
- TGI [14]: > 100 µM
- TGI [15]: > 100 µM
- TGI [16]: > 100 µM
- TGI [17]: > 100 µM
- TGI [18]: > 100 µM
- TGI [19]: > 100 µM
- TGI [58]: > 100 µM
- TGI [20]: > 100 µM
- TGI [21]: > 100 µM
- TGI [22]: > 100 µM
- TGI [23]: > 100 µM
- TGI [24]: > 100 µM
- TGI [25]: > 100 µM
- TGI [26]: > 100 µM
- TGI [27]: > 100 µM
- TGI [28]: > 100 µM
- TGI [29]: > 100 µM
- TGI [30]: > 100 µM
- TGI [31]: > 100 µM
- TGI [32]: > 100 µM
- TGI [33]: > 100 µM
- TGI [34]: > 100 µM
- TGI [35]: > 100 µM
- TGI [36]: > 100 µM
- TGI [37]: > 100 µM
- TGI [38]: > 100 µM
- TGI [39]: > 100 µM
- TGI [40]: > 100 µM
- TGI [41]: > 100 µM
- TGI [42]: > 100 µM
- TGI [43]: > 100 µM
- TGI [44]: > 100 µM
- TGI [45]: > 100 µM
- TGI [46]: > 100 µM
- TGI [59]: > 100 µM
- TGI [47]: > 100 µM
- TGI [48]: > 100 µM
- TGI [49]: > 100 µM
- TGI [50]: > 100 µM
- TGI [51]: > 100 µM
- TGI [52]: > 100 µM
- TGI [53]: > 100 µM
- TGI [54]: > 100 µM
- TGI [55]: > 100 µM

Structure (SMILES): N#CC(=NCCO)C1=C(O)c2ccccc2C1=O
- TGI [1]: > 100 µM
- TGI [2]: > 100 µM
- TGI [3]: > 100 µM
- TGI [4]: > 100 µM
- TGI [5]: > 100 µM
- TGI [6]: > 100 µM
- TGI [8]: > 100 µM
- TGI [9]: > 100 µM
- TGI [56]: > 100 µM
- TGI [11]: > 100 µM
- TGI [12]: > 100 µM
- TGI [57]: > 100 µM
- TGI [13]: > 100 µM
- TGI [14]: > 100 µM
- TGI [15]: > 100 µM
- TGI [16]: > 100 µM
- TGI [17]: > 100 µM
- TGI [18]: > 100 µM
- TGI [19]: > 100 µM
- TGI [58]: > 100 µM
- TGI [20]: > 100 µM
- TGI [21]: > 100 µM
- TGI [22]: > 100 µM
- TGI [23]: > 100 µM
- TGI [24]: > 100 µM
- TGI [25]: > 100 µM
- TGI [26]: > 100 µM
- TGI [27]: > 100 µM
- TGI [28]: > 100 µM
- TGI [29]: > 100 µM
- TGI [30]: > 100 µM
- TGI [31]: > 100 µM
- TGI [32]: > 100 µM
- TGI [33]: > 100 µM
- TGI [34]: > 100 µM
- TGI [35]: > 100 µM
- TGI [36]: > 100 µM
- TGI [37]: > 100 µM
- TGI [38]: > 100 µM
- TGI [39]: > 100 µM
- TGI [40]: > 100 µM
- TGI [41]: > 100 µM
- TGI [42]: > 100 µM
- TGI [43]: > 100 µM
- TGI [44]: > 100 µM
- TGI [45]: > 100 µM
- TGI [46]: > 100 µM
- TGI [59]: > 100 µM
- TGI [47]: > 100 µM
- TGI [48]: > 100 µM
- TGI [49]: > 100 µM
- TGI [50]: > 100 µM
- TGI [51]: > 100 µM
- TGI [52]: > 100 µM
- TGI [53]: > 100 µM
- TGI [54]: > 100 µM
- TGI [55]: > 100 µM
